IC50 data for 73 molecules are collected here from patent US20150011508A1, “COMPOUNDS AND COMPOSITIONS AS C-KIT KINASE INHIBITORS” (priority 2011, published 2015).

In general, IC50 refers to the concentration needed to halve the response being measured.

Structures are written as SMILES.

The first assay deals with T1, c-kit (Homo sapiens, UniProt P10721).
T1 construct: human Mo7e cells which endogenously express c-kit; endogenous in cells; host or cells: human Mo7e cells (SCF-dependent promegakaryocytic leukemia line)
T1 sequence (P10721 26-976): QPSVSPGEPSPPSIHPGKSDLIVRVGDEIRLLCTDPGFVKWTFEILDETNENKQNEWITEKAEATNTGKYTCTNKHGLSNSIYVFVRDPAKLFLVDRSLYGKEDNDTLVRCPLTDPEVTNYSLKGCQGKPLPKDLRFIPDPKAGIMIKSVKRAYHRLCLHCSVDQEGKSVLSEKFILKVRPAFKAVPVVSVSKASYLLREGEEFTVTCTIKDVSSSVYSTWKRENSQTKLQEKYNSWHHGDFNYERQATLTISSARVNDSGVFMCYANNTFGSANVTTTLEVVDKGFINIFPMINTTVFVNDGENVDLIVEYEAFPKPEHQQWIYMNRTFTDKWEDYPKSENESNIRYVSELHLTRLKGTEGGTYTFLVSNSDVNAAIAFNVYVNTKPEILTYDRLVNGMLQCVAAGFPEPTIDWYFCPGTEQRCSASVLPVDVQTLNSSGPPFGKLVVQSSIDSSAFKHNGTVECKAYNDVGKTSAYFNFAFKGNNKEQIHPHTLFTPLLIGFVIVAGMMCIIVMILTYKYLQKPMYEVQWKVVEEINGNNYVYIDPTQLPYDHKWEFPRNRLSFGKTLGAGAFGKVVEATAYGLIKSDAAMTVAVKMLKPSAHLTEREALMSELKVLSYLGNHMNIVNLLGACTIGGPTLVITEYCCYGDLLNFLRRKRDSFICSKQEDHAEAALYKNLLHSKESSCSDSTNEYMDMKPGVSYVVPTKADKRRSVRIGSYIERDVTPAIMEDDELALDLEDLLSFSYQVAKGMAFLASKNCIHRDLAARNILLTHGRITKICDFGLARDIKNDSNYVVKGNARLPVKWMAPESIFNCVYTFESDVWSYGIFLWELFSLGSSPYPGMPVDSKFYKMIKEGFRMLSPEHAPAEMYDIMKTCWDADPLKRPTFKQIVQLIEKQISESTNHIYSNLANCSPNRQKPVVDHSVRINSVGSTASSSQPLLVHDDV
Put plainly: Mo7e cell proliferation assay (SCF dependent proliferation). Particulars: Table 2, values marked *: 20% FBS instead of 1% FBS. It is filed as cell-based. Summed up: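 SCF-dependent proliferation of human Mo7e cells, which express c-kit endogenously, was measured after 48 h at 37° C by CellTiter Glo luminescence. IC50 was taken as the concentration giving a response halfway between the baseline and maximum responses.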
Take `Cc1ccc(-c2nc(CC(=O)N(C)C)no2)cc1NC(=O)c1cnc2ccccn12` [F233]: the IC50 is greater than 6 µM.

The same assay, now with this note: Table 2; human Mo7e cells stimulated with human recombinant SCF, 48 h, CellTiter Glo; 1% FBS (footnote).
For `Cc1nc(-c2ccc(C)c(NC(=O)c3cnc4ccc(-c5csc(N6CCOCC6)n5)cn34)c2)no1` [F176], the IC50 was 0.226 µM.

For the molecule `COC(=O)NCc1nc(-c2ccc(C)c(NC(=O)c3cnc4cc(CCC(C)=O)ccn34)c2)no1` [F177], the IC50 was 0.24 µM.

With `COC(=O)NCc1nc(-c2ccc(C)c(NC(=O)c3cnc4cc(CCC(C)(C)O)ccn34)c2)no1` [F178], the IC50 is 0.279 µM.

For the molecule `COCCOCc1nc(-c2ccc(C)c(NC(=O)c3cnc4ccc(F)cn34)c2)no1` [F179], the IC50 worked out at 0.139 µM.

With `CC(=O)CCc1ccc2ncc(C(=O)Nc3cc(-c4noc(C)n4)ccc3C)n2c1` [F180], the IC50 was 0.356 µM.

Regarding `Cc1nc(-c2ccc(C)c(NC(=O)c3cnc4ccc(CCC(C)(C)O)cn34)c2)no1` [F181], the IC50 came out at 0.287 µM.

Take `COCCOCc1nc(-c2ccc(F)c(NC(=O)c3cnc4ccc(-c5cnn(CC(C)(C)O)c5)cn34)c2)no1` [F182]: the IC50 was 0.328 µM.

`CC(C)(O)CCc1nc(-c2ccc(F)c(NC(=O)c3cnc4ccc(-c5cnn(CC(C)(C)O)c5)cn34)c2)no1` [F183]: the IC50 turned out to be 0.394 µM.

For the molecule `Cc1ccc(-c2noc(CCC(C)(C)O)n2)cc1NC(=O)c1cnc2ccc(CCN3CCOCC3)cn12` [F184], the half-inhibitory concentration (IC50) stood at 0.158 µM.

For the molecule `Cc1nc(-c2ccc(C)c(NC(=O)c3cnc4ccc(C#N)cn34)c2)no1` [F185], the IC50 is 0.508 µM.

For the molecule `Cc1nc(-c2ccc(C)c(NC(=O)c3cnc4ccc(CCN5CCOCC5C)cn34)c2)no1` (stereo not shown) [F186], the IC50 stood at 0.416 µM.

For `Cc1nc(-c2ccc(C)c(NC(=O)c3cnc4cc(C#N)ccn34)c2)no1` [F187], the IC50 came out at 0.219 µM.

Regarding `COCCOCc1nc(-c2ccc(C)c(NC(=O)c3cnc4ccc(OC)cn34)c2)no1` [F188], the half-maximal inhibitory concentration (IC50) worked out at 0.103 µM.

Regarding `Cc1ccc(-c2noc(C(C)C)n2)cc1NC(=O)c1cnc2ccccn12` [F189], the IC50 was determined as 0.122 µM.

For the molecule `COCCOCc1nc(-c2cc(NC(=O)c3cnc4ccccn34)c(C)cc2C)no1` [F190], the IC50 was found to be 0.119 µM.

Take `Cc1ccc(-c2noc(CCC(C)(C)O)n2)cc1NC(=O)c1cnc2cc(N3CCOC3=O)ccn12` [F191]: the IC50 is 0.272 µM.

Turning to `Cc1ccc(-c2noc(NCC(C)(C)O)n2)cc1NC(=O)c1cnc2cc(F)ccn12` [F192], the IC50 was found to be 0.313 µM.

Consider `Cc1ccc2ncc(C(=O)Nc3cc(-c4noc(NCC(C)(C)O)n4)ccc3C)n2c1` [F193], for which the half-inhibitory concentration (IC50) came out at 0.166 µM.

Turning to `Cc1ccc(-c2noc(CCC(C)(C)O)n2)cc1NC(=O)c1cnc2ccc(N3CCOCC3)cn12` [F194], the IC50 worked out at 0.126 µM.

Take `Cc1ccc(-c2noc(CCC(C)(C)O)n2)cc1NC(=O)c1cnc2ccc(COCC(F)(F)F)cn12` [F195]: the half-maximal inhibitory concentration (IC50) is 0.15 µM.

Consider `COCc1n[nH]c(-c2ccc3ncc(C(=O)Nc4cc(-c5noc(C)n5)ccc4C)n3c2)n1` [F196], for which the IC50 stood at 0.414 µM.

On to `COCCNc1nc(-c2ccc(C)c(NC(=O)c3cnc4cc(C)ccn34)c2)no1` [F197], for which the IC50 was 0.11 µM.

As for `Cc1ccc(-c2noc(C(C)O)n2)cc1NC(=O)c1cnc2ccccn12` (stereo not shown) [F198], the half-maximal inhibitory concentration (IC50) amounted to 0.255 µM.

Take `Cc1ccc(-c2noc(C(F)C(F)(F)F)n2)cc1NC(=O)c1cnc2ccccn12` (stereo not shown) [F199]: the IC50 was 0.126 µM.

In the case of `Cc1ccc(-c2noc(C(C)F)n2)cc1NC(=O)c1cnc2ccccn12` (stereo not shown) [F200], the IC50 is 0.12 µM.

For `Cc1nc(-c2ccc(C)c(NC(=O)c3cnc4ccc(-c5cnccn5)cn34)c2)no1` [F201], the IC50 was determined as 0.125 µM.

For the molecule `Cc1nc(-c2ccc(C)c(NC(=O)c3cnc4ccc(-c5cnccc5C)cn34)c2)no1` [F202], the IC50 was found to be 0.135 µM.

For the molecule `Cc1nc(-c2ccc(C)c(NC(=O)c3cnc4ccc(C5CC5)cn34)c2)no1` [F203], the IC50 is 0.144 µM.

As to `COC(=O)NCc1nc(-c2ccc(C)c(NC(=O)c3cnc4ccc(C)cn34)c2)no1` [F204], the half-inhibitory concentration (IC50) is 0.157 µM.

As for `CCC(C)(O)c1nc(-c2ccc(C)c(NC(=O)c3cnc4ccccn34)c2)no1` (stereo not shown) [F205], the half-inhibitory concentration (IC50) turned out to be 0.174 µM.

For `Cc1nc(-c2ccc(C)c(NC(=O)c3cnc4ccc(-c5cncnc5)cn34)c2)no1` [F206], the IC50 came out at 0.196 µM.

With `Cc1cc(-c2ccc3ncc(C(=O)Nc4cc(-c5noc(C)n5)ccc4C)n3c2)n(C)n1` [F207], the IC50 was found to be 0.223 µM.

Take `Cc1nc(-c2ccc(C)c(NC(=O)c3cnc4ccc(-c5ccnn5C)cn34)c2)no1` [F208]: the IC50 is 0.228 µM.

With `CCNC(=O)Cc1nc(-c2ccc(C)c(NC(=O)c3cnc4ccccn34)c2)no1` [F209], the IC50 was determined as 0.318 µM.

As to `CCN(CC)C(=O)Cc1nc(-c2ccc(C)c(NC(=O)c3cnc4ccccn34)c2)no1` [F210], the IC50 is 0.431 µM.

`Cc1nc(-c2ccc(C)c(NC(=O)c3cnc4ccc(CCN5CCNCC5)cn34)c2)no1` [F211]: the IC50 stood at 0.571 µM.

Take `Cc1nc(-c2ccc(C)c(NC(=O)c3cnc4ccc(CCN5CCOCC5)cn34)c2)no1` [F212]: the 50% inhibitory concentration (IC50) is 0.691 µM.

Regarding `CC(=O)N[C@@H](C)c1nc(-c2ccc(C)c(NC(=O)c3cnc4ccccn34)c2)no1` [F213], the IC50 was 0.795 µM.

For the molecule `COCc1n[nH]c(-c2ccc3ncc(C(=O)Nc4cc(-c5noc(CCC(C)(C)O)n5)ccc4C)n3c2)n1` [F214], the IC50 stood at 0.805 µM.

In the case of `COCCOCc1nc(-c2ccc(C)c(NC(=O)c3cnc4ccccn34)c2C)no1` [F215], the IC50 was 0.886 µM.

Consider `COC(=O)NCc1nc(-c2ccc(C)c(NC(=O)c3cnc4ccc(CCC(=O)OC(C)(C)C)cn34)c2)no1` [F216], for which the IC50 came to 1.03 µM.

Regarding `Cc1ccc(-c2noc(CN)n2)cc1NC(=O)c1cnc2ccccn12` [F217], the IC50 was determined as 1.03 µM.

Consider `Cc1ccc(-c2noc(C(C)(C)N)n2)cc1NC(=O)c1cnc2ccccn12` [F218], for which the IC50 was 1.06 µM.

Turning to `Cc1ccc(-c2noc(C[C@@H](C)N)n2)cc1NC(=O)c1cnc2ccccn12` [F219], the IC50 was determined as 1.19 µM.

Regarding `Cc1ccc(-c2noc(CNC(=O)OCCC(F)(F)F)n2)cc1NC(=O)c1cnc2ccccn12` [F220], the IC50 was determined as 1.19 µM.

As to `Cc1ccc(-c2noc(CCC(C)(C)O)n2)cc1NC(=O)c1cnc2ccc(-n3ccnc3)cn12` [F221], the IC50 turned out to be 1.25 µM.

Turning to `CC(=O)NCCCc1nc(-c2ccc(C)c(NC(=O)c3cnc4ccccn34)c2)no1` [F222], the IC50 was 1.32 µM.

Regarding `Cc1ccc(-c2noc(CNC(=O)CC(C)(C)O)n2)cc1NC(=O)c1cnc2ccccn12` [F223], the IC50 turned out to be 1.46 µM.

Consider `Cc1ccc(-c2noc(CNC(=O)CCO)n2)cc1NC(=O)c1cnc2ccccn12` [F224], for which the IC50 stood at 1.48 µM.

In the case of `Cc1ccc(-c2nc(C(C)(C)C)no2)cc1NC(=O)c1cnc2ccccn12` [F225], the IC50 was found to be 1.59 µM.

In the case of `Cc1ccc(-c2noc(CCN)n2)cc1NC(=O)c1cnc2ccccn12` [F226], the IC50 turned out to be 2.18 µM.

Consider `Cc1ccc(-c2noc(CC#N)n2)cc1NC(=O)c1cnc2ccccn12` [F227], for which the IC50 was determined as 2.38 µM.

Turning to `Cc1ccc(-c2noc(CCC(=O)O)n2)cc1NC(=O)c1cnc2ccccn12` [F229], the IC50 amounted to 5.45 µM.

As to `COC(=O)NCc1nc(-c2ccc(C)c(NC(=O)c3cnc4ccc(CCC(=O)O)cn34)c2)no1` [F230], the half-inhibitory concentration (IC50) is greater than 10 µM.

Regarding `Cc1ccc(-c2noc(CC(F)(F)F)n2)cc1NC(=O)c1cnc2ccccn12` [F231], the IC50 was greater than 10 µM.

Turning to `COC(=O)NCc1nc(-c2ccc(C)c(NC(=O)c3cnc4cc(CCC(=O)O)ccn34)c2)no1` [F232], the 50% inhibitory concentration (IC50) was greater than 10 µM.

`Cc1nc(-c2ccc(C)c(NC(=O)c3cnc4ccc(-c5c(C)nn(CC(=O)OC(C)(C)C)c5C)cn34)c2)no1` [F234]: the 50% inhibitory concentration (IC50) is 0.209 µM.

Regarding `Cc1nc(-c2ccc(C)c(NC(=O)c3cnc4ccc(-c5c(C)nn(CC(=O)O)c5C)cn34)c2)no1` [F235], the IC50 worked out at 2.46 µM.

As for `Cc1nc(-c2ccc(C)c(NC(=O)c3cnc4ccc(-c5nc(C)c(C(C)O)s5)cn34)c2)no1` (stereo not shown) [F236], the IC50 worked out at 0.166 µM.

As to `Cc1nc(-c2ccc(C)c(NC(=O)c3cnc4ccc(-c5nc(C)c(C)s5)cn34)c2)no1` [F237], the IC50 turned out to be 0.182 µM.

Take `Cc1nc(-c2ccc(C)c(NC(=O)c3cnc4ccc(-c5c(C)nn(CC(=O)NCCN6CCOCC6)c5C)cn34)c2)no1` [F239]: the IC50 was 0.193 µM.

With `Cc1nc(-c2ccc(C)c(NC(=O)c3cnc4ccc(C(N)=O)cn34)c2)no1` [F240], the IC50 is 1.48 µM.

Consider `Cc1nc(-c2ccc(C)c(NC(=O)c3cnc4ccc(C(N)=S)cn34)c2)no1` [F241], for which the IC50 was determined as 0.127 µM.

In the case of `Cc1nc(-c2ccc(C)c(NC(=O)c3cnc4ccc(-c5nc(C)c(C(=O)NCCO)s5)cn34)c2)no1` [F242], the IC50 was found to be 0.155 µM.

Take `Cc1nc(-c2ccc(C)c(NC(=O)c3cnc4ccc(-c5nc(C)c(C(=O)NCCN6CCN(C)CC6)s5)cn34)c2)no1` [F243]: the IC50 is 0.194 µM.

Turning to `Cc1nc(-c2ccc(C)c(NC(=O)c3cnc4ccc(-c5nc(C)c(C(=O)NCCN6CCOCC6)s5)cn34)c2)no1` [F245], the IC50 stood at 0.12 µM.

On to `Cc1ccc(-c2noc(CCC(C)(C)O)n2)cc1NC(=O)c1cnc2c(N)cccn12` [F246], for which the IC50 turned out to be 1.8 µM.

Regarding `Cc1nc(-c2ccc(C)c(NC(=O)c3cnc4ccc(-c5sc(C(=O)O)nc5C)cn34)c2)no1` [F247], the IC50 is 0.341 µM.

As to `Cc1nc(-c2ccc(C)c(NC(=O)c3cnc4ccc(-c5sc(C(=O)NCCN6CCN(C)CC6)nc5C)cn34)c2)no1` [F248], the IC50 was found to be 0.14 µM.

Regarding `Cc1ccn2c(C(=O)Nc3cc(-c4noc(CCC(C)(C)OC(=O)CN)n4)ccc3C)cnc2c1` [F249], the IC50 came out at 0.108 µM.

With `Cc1ccn2c(C(=O)Nc3cc(-c4noc(CC[C@@](C)(OC(=O)[C@@H](N)C(C)C)C(F)(F)F)n4)ccc3C)cnc2c1` [F251], the IC50 was 0.142 µM.

`Cc1ccn2c(C(=O)Nc3cc(-c4noc(CC[C@](C)(OC(=O)[C@H](N)C(C)C)C(F)(F)F)n4)ccc3C)cnc2c1` [F252]: the half-maximal inhibitory concentration (IC50) is 0.134 µM.
